Experimental data from patent publication US10752626B2, “Iso-citrate dehydrogenase (IDH) inhibitor” (SHANGHAI METON PHARMACEUTICAL CO., LTD, priority 2016, dated 2020).
Read-outs that look alike come from different tables or passages of the source.

Test: In vivo pharmacokinetics in ICR mouse
Experimental: The pharmacokinetic properties of the compounds of the present disclosure were assessed in ICR mice (male, 6-8 weeks, 20.0-25.3 g) after p.o. and i.v. administration.
The ICR mice were purchased from Vital River Laboratory Technology Co., Ltd. (Beijing, China), housed in solid bottom polypropylene cages with sterilized bedding, kept in a room with 40% to 70% humidity, 20 to 25° C. room temperature, 10 to 20 air changes/hour, and on a 12-hour light/dark cycle except when interruptions are necessitated by study activities. The mice were fed with sterilized diet from Shanghai SLAC Laboratory Animal Co., Ltd. (Shanghai, China) and sterilized water. All animals were examined upon receipt and were acclimated for at least 3 days. Only the ones that appear to be healthy were selected for the study basing on overall health, body weight, or other relevant data as appropriate. Individual animal in each group was identified by ear notch.
The mice were fasted overnight prior to treatment, but having free access to drinking water all the time. Before dosing, each mouse was weighed and the actual dose volume for each mouse was calculated by using the formula below: Dose Volume (mL) [Nominal Dose (mg·kg^−1)/Dose Concentration (mg·mL^−1)]×Animal Body Weight (kg)
The actual body weights and the actual dose volumes were recorded accordingly.
For each test group, nine mice were used, and mice in different groups were given a single p.o dose of the test compound at 10 mg·kg^−1, or a single i.v. dose of 2 mg·kg^−1 respectively. Blood samples (e.g., at least […]) were collected into EDTA-K2 tubes at pre-determined time points, for example, pre-dose, 5 min, 15 min, 30 min, 1 h, 2 h, 4 h, 8 h, 12 h, and 24 h post-dose. Each mouse was collected the blood sample at three discontinuous time points, and three mice were used for sampling at each time point. The collected samples were centrifuged at 5500 rpm for 10 min to obtain plasma samples, which were later measured by LC-MS/MS. Data of plasma concentration vs. time were processed by linear regression analysis. All pharmacokinetic parameters were calculated using non-compartment model of Pharsight Phoenix 6.3.
The pharmacokinetics (PK) studies of the compounds were conducted in ICR mice (male, 6-8 weeks, 20.0-25.3 g, Vital River Laboratory Technology Co., Ltd.) administrated a single p.o. dose of 10 mg·kg^−1 or a single i.v. dose of 2 mg·kg^−1 according to the method disclosed in Test 4 of the Biological evaluation section.
Each experiment was independently performed in triplicate. The plasma concentration of an exemplary Compound 23 after a p.o. administration of 10 mg·kg^−1 in ICR mouse is plotted as function of time in FIG. 6. The plasma concentration of the exemplary Compound 23 after an i.v. injection of 2 mg·kg^−1 in ICR mouse is plotted as function of time in FIG. 7. Each data represents the mean plasma concentration of the three experiments with standard error of mean (SEM) as error bars.

[1] = male, plasma, iv, i.v. dose of 2 mg · kg^−1
[2] = male, plasma, po, p.o. dose of 10 mg · kg^−1

With `CCN1Cc2c(ccnc2N[C@@H](C)c2ccc(Oc3ccccc3)c(F)c2)C1=O` [Compound 23, (S)-2-ethyl-4-((1-(3-fluoro-4-phenoxyphenyl)ethyl)amino)-2,3-dihydro-1H-pyrrolo[3,4-c]pyridin-1-one] the AUMC0-inf (i.v. dose of 2 mg · kg^−1) was 1283 ng · h^2 · mL^−1, the AUMC0-t (i.v. dose of 2 mg · kg^−1) was 1138 ng · h^2 · mL^−1 and the Kel (i.v. dose of 2 mg · kg^−1) was 0.244 h⁻¹. For the same compound, the MRTIV (i.v. dose of 2 mg · kg^−1) was 0.98 h, the AUC(0-t) [1] was 1300 ng·h/mL and the clearance [1] was 25.4 mL/min/kg. The half-life [1] was 2.8 h, the AUC0-inf (male, plasma, iv, i.v. dose of 2 mg · kg^−1, read-out: AUC0-inf) was 1310 ng·h/mL and the Vd (male, plasma, iv, i.v. dose of 2 mg · kg^−1, read-out: Vdss) was 1.49 L/kg. The AUC(0-t) [2] was 2890 ng·h/mL, the Cmax [2] was 1180 ng/mL and the Tmax [2] was 0.25 h. For the same compound, the half-life [2] was 1.8 h, the AUC0-inf (p.o. dose of 10 mg · kg^−1) was 2917 ng · h · mL^1 and the AUMC0-inf (p.o. dose of 10 mg · kg^−1) was 7550 ng · h^2 · mL^−1. The AUMC0-t (p.o. dose of 10 mg · kg^−1) was 7099 ng · h^2 · mL^−1, the F (p.o. dose of 10 mg · kg^−1) was 44% and the Kel (p.o. dose of 10 mg · kg^−1) was 0.385 h⁻¹. The MRTPO (p.o. dose of 10 mg · kg^−1) was 2.6 h.
